The nature of the assay: Inhibition of microtubule polymerisation in Rattus norvegicus (rat) A10 cells.

As a reminder, the EC50 is the midpoint of the concentration-response curve. A higher EC50 goes with a less potent agent.

On to `COc1cc(OC)c(C2C=C(c3cc(OC)ccc3OC)NC(=S)N2)c(OC)c1` (configuration not stated), for which it took 2.9 µM to reach a half-maximal effect (EC50).
With `COc1ccc(C2C=C(c3cc(OC)c(OC)c(OC)c3)NC(=S)N2)cc1O` (configuration not stated), the midpoint of the response, the EC50, lay at 4.4 µM.

The record behind these values is BindingDB's records for doi:10.1007/s00044-010-9334-1 (n/a, 2011).
